In paper PMC7048192, “7-Acylamino-3H-1,2-benzoxathiepine 2,2-dioxides as new isoform-selective carbonic anhydrase IX and XII inhibitors” (Journal of Enzyme Inhibition and Medicinal Chemistry, 2020):

Experiments:
Assay in all cases: stopped-flow CO2 hydrase assay
Type in all cases: biochemical
hCA I = target: T1, hCA I (Homo sapiens, UniProt P00915); conditions: read-out: KI (nM)^a,b / hCA I
T1 construct: gene CA1; recombinant, obtained in-house
From the text: stopped-flow CO2 hydrase assay on hCA I

hCA IX = target: T2, hCA IX (Homo sapiens, UniProt Q16790); conditions: read-out: KI (nM)^a,b / hCA IX
T2 construct: gene CA9; recombinant, obtained in-house
From the text: stopped-flow CO2 hydrase assay on hCA IX

hCA XII = target: T3, hCA XII (Homo sapiens, UniProt O43570); conditions: read-out: KI (nM)^a,b / hCA XII
T3 construct: gene CA12; recombinant, obtained in-house
T3 sequence (O43570 25-354): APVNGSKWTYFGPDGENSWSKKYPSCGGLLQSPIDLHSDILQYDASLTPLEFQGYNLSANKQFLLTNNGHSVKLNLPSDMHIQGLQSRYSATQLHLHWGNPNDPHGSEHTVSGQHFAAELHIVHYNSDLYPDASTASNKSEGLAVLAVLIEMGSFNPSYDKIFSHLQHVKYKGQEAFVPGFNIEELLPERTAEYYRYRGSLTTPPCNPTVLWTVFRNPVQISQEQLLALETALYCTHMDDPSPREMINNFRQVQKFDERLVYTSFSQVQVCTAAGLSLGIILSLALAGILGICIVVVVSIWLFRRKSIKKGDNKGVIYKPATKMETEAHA
From the text: stopped-flow CO2 hydrase assay on hCA XII

hCA II = target: T4, hCA II (Homo sapiens, UniProt P00918); conditions: read-out: KI (nM)^a,b / hCA I
T4 construct: gene CA2; recombinant, obtained in-house

T1 sequence (P00915 2-261): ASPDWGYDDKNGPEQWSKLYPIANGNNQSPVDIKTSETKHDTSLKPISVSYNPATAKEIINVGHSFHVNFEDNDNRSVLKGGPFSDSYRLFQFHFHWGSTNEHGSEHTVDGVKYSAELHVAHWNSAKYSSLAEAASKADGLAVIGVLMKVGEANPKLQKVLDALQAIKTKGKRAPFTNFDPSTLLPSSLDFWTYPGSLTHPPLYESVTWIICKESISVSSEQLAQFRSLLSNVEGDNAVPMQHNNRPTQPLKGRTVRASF

SMILES	Ki (hCA I)	Ki (hCA IX)	Ki (hCA XII)	Ki (hCA II)
CC(=O)Nc1ccc2c(c1)C=CCS(=O)(=O)O2 [compound 8, N-(2,2-Dioxido-3H-1,2-benzoxathiepin-7-yl)acetamide]	> 100000 nM	61.8 nM	162 nM	> 100000 nM
O=C(Nc1ccc2c(c1)C=CCS(=O)(=O)O2)c1ccccc1 [compound 9, N-(2,2-Dioxido-3H-1,2-benzoxathiepin-7-yl)benzamide]	> 100000 nM	209 nM	370 nM	> 100000 nM
O=C(Nc1ccc2c(c1)C=CCS(=O)(=O)O2)c1cccs1 [compound 16, N-(2,2-Dioxido-3H-1,2-benzoxathiepin-7-yl)thiophene-2-carboxamide]	> 100000 nM	178 nM	73.2 nM	> 100000 nM
O=C(Nc1ccc2c(c1)C=CCS(=O)(=O)O2)c1ccccc1I [compound 12, N-(2,2-Dioxido-3H-1,2-benzoxathiepin-7-yl)-2-iodobenzamide]	> 100000 nM	45.4 nM	644 nM	> 100000 nM
O=C(Nc1ccc2c(c1)C=CCS(=O)(=O)O2)c1ccc(Br)cc1 [compound 11, N-(2,2-Dioxido-3H-1,2-benzoxathiepin-7-yl)4-bromobenzamide]	> 100000 nM	353 nM	141 nM	> 100000 nM

Second part, the compound after the results:

Ki (hCA I)	Ki (hCA IX)	Ki (hCA XII)	Ki (hCA II)	SMILES
> 100000 nM	19.7 nM	8.7 nM	> 100000 nM	O=C(Nc1ccc2c(c1)C=CCS(=O)(=O)O2)c1ccccc1C(F)(F)F [compound 15, N-(2,2-Dioxido-3H-1,2-benzoxathiepin-7-yl)-2-(trifluoromethyl)benzamide]
> 100000 nM	74.6 nM	40.3 nM	> 100000 nM	O=C(Nc1ccc2c(c1)C=CCS(=O)(=O)O2)c1ccccc1F [compound 14, N-(2,2-Dioxido-3H-1,2-benzoxathiepin-7-yl)-2-fluorobenzamide]
> 100000 nM	83 nM	309 nM	> 100000 nM	Cc1ccc(C(=O)Nc2ccc3c(c2)C=CCS(=O)(=O)O3)cc1 [compound 10, N-(2,2-Dioxido-3H-1,2-benzoxathiepin-7-yl)-4-methy benzamide]
> 100000 nM	66.8 nM	96.2 nM	> 100000 nM	O=C(Nc1ccc2c(c1)C=CCS(=O)(=O)O2)c1ccccc1Br [compound 13, N-(2,2-Dioxido-3H-1,2-benzoxathiepin-7-yl)-2-bromobenzamide]
> 100000 nM	210 nM	134 nM	> 100000 nM	O=C(Nc1ccc2c(c1)C=CCS(=O)(=O)O2)c1ccco1 [compound 17, N-(2,2-Dioxido-3H-1,2-benzoxathiepin-7-yl)furan-2-carboxamide]
